Entries after “also recorded” stand apart in the source; their conditions may differ. Read-outs that look alike come from different tables or passages of the source.
What was measured:
[1] = tested on: normal human PBMC lymphocytes; assay: Human PBMC lymphocyte viability by actual cell counts (hemacytometer; Tables 8A, 8B, FIG. 9); type: cell-based; details: for survival / proliferation of normal PBMC lymphocytes: low concentrations, Tables 8
Source text: (§1) FIGS. 9A & 9B show effects of panaxytriol and Compound D, respectively, in varying doses at 24 (▪), 72 (●), and 120 (▴) hours on human PBMC lymphocyte survival based on actual cell counts. In both cases, lower amounts of the compounds increase cell proliferation. […] Cell counts in controls without active agent were: at 24 hrs: 75.4%; at 72 hrs: 93.0%; and at 120 hrs: 85.7%. FIG. 9 parallel the experiments in FIG. 8 but used a different method to determine cell survival; the method used in FIG. 9 was actual cell counting using a hemocytometer and microscope.
(§2) The effects of panaxytriol and Compound D on the viability of normal human PBMC lymphocytes shown in Tables 8A and 8B were determined using hemacytometer/microscope determinations. PBMC cells were obtained fresh from the New York Blood Center, New York, N.Y. 10021 (Dr. S. B. Jiang). Cell counts were performed in duplicate for 0, 0.1, 0.3, 1.0, 3.0, and 10.0 μM of each compound at the end of 24 hr, 72 hr, and 120 hr incubations. Incubation was carried out in RPMI 1640 medium (GIBCO/BRL) with 10% heat inactivated fetal bovine serum. […] Acad. Sci. USA 98: 8113-8118, 2001.

[2] = as above; type: cell-based; details: human
Source text: as §1, §2

[3] = tested on: CCRF-CEM/VBL100 vinblastine-resistant cells; assay: In vitro cytotoxicity against vinblastine-resistant CCRF-CEM subline; type: cell-based, human; details: for IC50: Homo sapiens, CCRF-CEM, 72 h; for fold of cross-resistance (CCRF-CEM/Vinblastine vs parent cell line): Table 3D, given as x or -fold
human PBMC lymphocytes = assay: DNA synthesis ([3H]thymidine incorporation) in human PBMC lymphocytes (FIG. 8); type: cell-based; details: for maximal human lymphocyte stimulation concentration: at 120 hrs, FIG. 8B, C, D
Source text: FIG. 8 show the effects of PHA and different concentrations of compounds of the invention, at different time points, on the proliferation of a culture of human lymphocytes as measured by DNA synthesis through incorporation of radiolabeled thymidine into the DNA.
The main principle and method of experiments for human PBMC lymphocytes and for mouse splenocytes stimulations were the same, since both measure immunological cell stimulation by PHA, PXT and compounds of the invention. Both the lymphocyte and the splenocyte assays measure the ^3H-dThd tracer as an indication of DNA synthesis. For PBMC lymphocytes (FIGS. 9A-9G), the experimental methods are those for splenocytes disclosed in Example 24 (FIGS. 11A-11F; FIGS. 12A-12E), except 0.282×10^6 PBMC lymphocyte cells in 198.5 μl was used, and the experimental incubation time was extended to 120 hr.
Briefly, to generate the data in Tables 8A and 8B, the compounds were tested in a [^3H] thymidine uptake experiment using PBMC human lymphocytes obtained from the New York Blood Center. PBMC human lymphocytes were exposed to compounds at 0.03, 0.1, 0.3, and 1.0 μM for 24 hours, and examined for increased [^3H] thymidine uptake. Human lymphocytes were also exposed to compounds for an extended time, e.g., 48 hrs and 72 hrs, instead of 24 hrs, in the [^3H] thymidine uptake assay, and examined to determine the extent of increased [^3H] thymidine uptake to determine if extended exposure will further increase the immune-enhancing effects of the compounds. Increased [^3H] thymidine uptake is interpreted as increased DNA synthesis, which indicates cell growth and division. In the case of immune system cells, this should result in an immune-enhancing effect. The compounds are compared by their IC50 values and/or their effect on [^3H] thymidine uptake at a given concentration and/or time point.

[4] = tested on: CCRF-CEM human T-cell acute lymphoblastic leukemia cells; assay: In vitro cytotoxicity against CCRF-CEM (XTT / CCK-8 tetrazolium assay, 72 hr); details: for IC50: Homo sapiens
[5] = read-out: IC50 CCRF-CEM/Vinblastine
[6] = CCRF-CEM, 72 h, read-out: CCRF-CEM (IC50 in μM), Table 3A-2, CCK-8, 72-hr exposure
[7] = CCRF-CEM, 72 h, read-out: IC50 CCRF-CEM, Table 3D, CCK-8, 72-hr incubation

## C=C[C@H](O)C#CC#CC[C@H]1OC(C)(C)O[C@@H]1CCCCCCC [Compound (D)]
[1]; human
  high concentrations increasing cell death: 3 to 10 µM
[1]
  survival / proliferation of normal PBMC lymphocytes: increased the survival
[2]
  viability at 24 h, 0.1 µM: 101%
  viability at 24 h, 0.3 µM: 118%
  viability at 24 h, 1 µM: 78.4%
  viability at 24 h, 3 µM: 90.5%
  viability at 24 h, 10 µM: 7.5%
  viability at 72 h, 0.1 µM: 116%
  viability at 72 h, 0.3 µM: 108%
  viability at 72 h, 1 µM: 89.7%
  viability at 72 h, 3 µM: 66.8%
  viability at 72 h, 10 µM: 33.2%
  viability at 120 h, 0.1 µM: 78.2%
  viability at 120 h, 0.3 µM: 73.6%
  viability at 120 h, 1 µM: 102%
  viability at 120 h, 3 µM: 68%
  viability at 120 h, 10 µM: 27.4%
[3]; Table 3A-2, CCK-8, 72-hr exposure, read-out: CCRF-CEM/VBL (IC50 in μM)
  IC50: 2.55 µM
[3]; [5]
  IC50: 0.947 µM
[3]; TAXOL- or vinblastine-resistant (MDR) sublines
  cross-resistance to TAXOL or vinblastine: do not appear to be cross-resistant to TAXOL or vinblastine
[3]; Table 3A-2
  Fold of resistance (IC50 ratio CCRF-CEM/VBL vs CCRF-CEM): 2.24 fold
[3]; Table 3A, CCRF-CEM/VBL
  analog is fold more potent (than Compound (A)): (analog is 1.19-fold
[3]
  fold of cross-resistance (CCRF-CEM/Vinblastine vs parent cell line): 1.98 fold
Human PBMC lymphocytes
  time of maximal stimulation of lymphocyte: 120 h
  maximal human lymphocyte stimulation concentration: 0.3 µM
Human PBMC lymphocytes; FIGS. 8, 9, 10, 11
  potency relative to panaxytriol (concentrations for lymphocyte or splenocyte maximal activation): ≥ 10 fold
[4]
  anti-cancer activity in the in vitro cytotoxicity assay: active against cancer
[4]; [6]
  IC50: 1.14 µM
[4]; [7]
  IC50: 0.478 µM
[4]; CCRF-CEM, read-out: IC50 (in μM), cytotoxic potency against cancer cell line growth in vitro, Table 3C, cell line not given
  IC50: 0.48 µM
[4]; Table 3A
  potency relative to Compound (A) in vitro: about 1.44 fold
[4]; Table 3A, CCRF-CEM
  analog is fold more potent (than Compound (A)): is 1.68-fold

## C=C[C@@H](O)C#CC#CC[C@@H](O)[C@H](O)CCCCCCC [panaxytriol]
[1]; FIGS. 9A, 9B
  time of maximal activation (cell counts): 24 h
[1]
  survival / proliferation of normal PBMC lymphocytes: increased the survival; also recorded: increases the proliferation and prolongs the life-span of normal lymphocytes
[2]; 0.1 μM, 24-hrs, read-out: viable cells relative to the starting point (control)
  viability at 24 h, 0.1 µM: 121%
[2]; 0.1 μM, 72-hrs, read-out: viable cells relative to the starting point (control)
  viability at 72 h, 0.1 µM: 113%
[2]; 0.1 μM, 120-hrs, read-out: viable cells relative to the starting point (control)
  viability at 120 h, 0.1 µM: 110%
[2]; 0.3 μM, 24-hrs, read-out: viable cells relative to the starting point (control)
  viability at 24 h, 0.3 µM: 140%
[2]; 0.3 μM, 72-hrs, read-out: viable cells relative to the starting point (control)
  viability at 72 h, 0.3 µM: 95.8%
[2]; 0.3 μM, 120-hrs, read-out: viable cells relative to the starting point (control)
  viability at 120 h, 0.3 µM: 105%
[2]; 1.0 μM, 24-hrs, read-out: viable cells relative to the starting point (control)
  viability at 24 h, 1 µM: 123%
[2]; 1.0 μM, 72-hrs, read-out: viable cells relative to the starting point (control)
  viability at 72 h, 1 µM: 102%
[2]; 1.0 μM, 120-hrs, read-out: viable cells relative to the starting point (control)
  viability at 120 h, 1 µM: 101%
[2]; 3.0 μM, 24-hrs, read-out: viable cells relative to the starting point (control)
  viability at 24 h, 3 µM: 104%
[2]; 3.0 μM, 72-hrs, read-out: viable cells relative to the starting point (control)
  viability at 72 h, 3 µM: 82.2%
[2]; 3.0 μM, 120-hrs, read-out: viable cells relative to the starting point (control)
  viability at 120 h, 3 µM: 74.1%
[2]; 10.0 μM, 24-hrs, read-out: viable cells relative to the starting point (control)
  viability at 24 h, 10 µM: 27.7%
[2]; 10.0 μM, 72-hrs, read-out: viable cells relative to the starting point (control)
  viability at 72 h, 10 µM: 28.5%
[2]; 10.0 μM, 120-hrs, read-out: viable cells relative to the starting point (control)
  viability at 120 h, 10 µM: 35.5%
[3]; read-out: CCRF-CEM/VBL (IC50 in μM)
  IC50: 4.43 µM
[3]; read-out: IC50 CCRF ± CEM/VBL
  IC50: 14.6 ± 6.92 µM
[3]; [5]
  IC50: 6.39 µM
[3]; Table 3
  fold resistance in brackets (IC50 CCRF-CEM/VBL vs CCRF-CEM): 1.20 x
[3]; Table 3A-2
  Fold of resistance (IC50 ratio CCRF-CEM/VBL vs CCRF-CEM): 1.20 fold
[3]
  fold of cross-resistance (CCRF-CEM/Vinblastine vs parent cell line): 1.27 fold
Human PBMC lymphocytes
  maximal human lymphocyte stimulation concentration: 3 µM
[4]; [6]
  IC50: 3.68 µM
[4]; CCRF-CEM, 72 h, read-out: IC50 CCRF-CEM, Table 3, XTT, 72-hour
  IC50: 12.1 ± 1.57 µM
[4]; [7]
  IC50: 5.04 ± 0.86 µM

— US8859615B2, “Compounds, compositions and methods for reducing toxicity and treating or preventing diseases” (priority 2008, dated 2014)
